Literature values in US7442682B2, “Transepithelial delivery of peptides with incretin hormone activities” (Nitto Denko Corporation, priority 2004, dated 2008).

Assays:
[1] = in vivo
fasting blood glucose = conditions: type 2 diabetes patients, pump infusion for 6 weeks, mainly within first week
β-cells = conditions: insulinotropic effect; read-out: half-maximal effective concentration on β-cells

| half-life relative to exendin-4 [1] | EC50 (β-cells) [nM] | Compound | lowering of fasting blood glucose (fasting blood glucose) [mM] |
| --- | --- | --- | --- |
| more than 10 fold | – | CCCCCCCCCCCCCCCC(=O)N[C@@H](CCC(=O)NCCCC[C@H](NC(=O)[C@H](C)NC(=O)[C@H](C)NC(=O)[C@H](CCC(N)=O)NC(=O)CNC(=O)[C@H](CCC(=O)O)NC(=O)[C@H](CC(C)C)NC(=O)[C@H](Cc1ccc(O)cc1)NC(=O)[C@H](CO)NC(=O)[C@H](CO)NC(=O)[C@@H](NC(=O)[C@H](CC(=O)O)NC(=O)[C@H](CO)NC(=O)[C@@H](NC(=O)[C@H](Cc1ccccc1)NC(=O)[C@@H](NC(=O)CNC(=O)[C@H](CCC(=O)O)NC(=O)[C@H](C)NC(=O)[C@@H](N)Cc1cnc[nH]1)[C@@H](C)O)[C@@H](C)O)C(C)C)C(=O)N[C@@H](CCC(=O)O)C(=O)N[C@@H](Cc1ccccc1)C(=O)N[C@H](C(=O)N[C@@H](C)C(=O)N[C@@H](Cc1c[nH]c2ccccc12)C(=O)N[C@@H](CC(C)C)C(=O)N[C@H](C(=O)N[C@@H](CCCNC(=N)N)C(=O)NCC(=O)N[C@@H](CCCNC(=N)N)C(=O)NCC(=O)O)C(C)C)[C@@H](C)CC)C(=O)O [Liraglutide] | – |
| – | 0.01 | GLP-1: glucagon-like peptide-1, human incretin hormone | 4 to 5 |
